Measured values reported in US7781580B2, “Stilbene derivatives as new cancer therapeutic agents” (Virginia Commonwealth University, priority 2007, dated 2010).
Where a name gives a salt, the structure may show the parent alone. Read-outs that look alike come from different tables or passages of the source.

Key:
[1] = water solubility of stilbene and carbamate prodrug (salts and free base); format: physicochemical; conditions: for solubility: water, 20 °C, 20° C.
Description: Stilbene prodrugs may be made by attaching to a stilbene derivative of interest (e.g. a stilbene derivative with anti-tumor activity), chemical groups (or moieties) that render the stilbene derivative more water soluble than before such a modification is carried out. By “water soluble” we mean that more than 20 mg compound can be fully dissolved in 1 mL of water. Further, the chemical groups that are attached to the stilbene derivative to make the derivative water soluble are labile (i.e. removable) in that, upon exposure to in vitro or in vivo hydrolyzing conditions, the chemical groups are removed or dissociated from the stilbene derivative by hydrolysis, releasing the active, anti-tumor form of the stilbene derivative. The chemical groups which are attached may themselves be biologically active, and are, at least, not biologically injurious to cells or mammals. […] As illustrated, morfolinoethyl-urea, morfolinoethyl-carbamate and triethylene glycol (TEG) groups (5a, 5b, 5c, respectively) may be used for this purpose.

[2] = test system: UCI101 ovarian cancer cells; assay: Alamar Blue cell growth inhibition, UCI101; format: cell-based
In short: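 UCI101 cells at 50% confluence treated 48 h in triplicate with compound (0–10 μM series) or 0.1% DMSO vehicle as 100% control. Alamar Blue added at 1/10 volume for 2 h; absorbance read at 570 and 600 nm, percent growth inhibition from the manufacturer's formula.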

UCI101 cells [3] = assay: cell cycle analysis (propidium iodide, FACScan), UCI101; format: cell-based
Description: Cells were stained with propidium iodide and analyzed with FACScan. Both 5b at 3 μM and stilbene 4a at 30 nM induce a subG0/1 population that represents the dead population. At higher concentrations of either compound, nearly all cells are dead.
(a) In vitro sensitivity of UCI101 cells toward three potential stilbene prodrugs, 5a-c, was tested in 96-well plates using Alamar Blue™ assays to determine cell growth inhibition. […] (b) 5b induces cell cycle change and apoptosis in UCI101 cells. […] A subG0/1 population, representing apoptotic cells, appeared along with a decrease of the G1/G2 ratio after cells were treated with 3 μM 5b. […] (c) Cells treated with stilbene 4a and 5b were stained with phospho-histone 3B, a mitotic marker. The positive signals of phospho-histone 3B were shown in green and nuclei were stained with DAPI in blue. […] (d) In vivo efficacy of 5b compared with stilbene 4a. Nude mice were injected with UCI101 ovarian cancer cells and treated with 7 doses of 5b,c or stilbene 4a every 2-3 days. Tumor volume was calculated and plotted against days.

MDA-MB231 cells = assay: immunofluorescent staining of tubulin, MDA-MB231; format: cell-based; conditions: CA4 10 nM, stilbene 4a 100 nM, vincristine 100 nM, 5b 3 μM; 16 hours
Excerpt: Nuclei were stained with 4′,6-diamidino-2-phenylindole (DAPI). Control cells show the reticular pattern of the microtubule network.

UCI101 cells [4] = assay: immunofluorescent staining of tubulin, UCI101; format: cell-based; conditions: CA4 10 nM, stilbene 4a 100 nM, 5b 3 μM; 16 hours
Excerpt: Nuclei were stained with DAPI.

[5] = test system: UCI101 ovarian cancer cells (xenograft); assay: UCI101 xenograft in nude mice; format: in vivo
Description: (§1) (a) In vitro sensitivity of UCI101 cells toward three potential stilbene prodrugs, 5a-c, was tested in 96-well plates using Alamar Blue™ assays to determine cell growth inhibition. […] (b) 5b induces cell cycle change and apoptosis in UCI101 cells. Cells were incubated with 5b at 1, 3, 10 μM for 16 hours followed by PI staining and flow cytometry analysis. A subG0/1 population, representing apoptotic cells, appeared along with a decrease of the G1/G2 ratio after cells were treated with 3 μM 5b. Higher concentration (10 μM) of 5b completely killed cells, as was the case with stilbene 4a at […]. (c) Cells treated with stilbene 4a and 5b were stained with phospho-histone 3B, a mitotic marker. The positive signals of phospho-histone 3B were shown in green and nuclei were stained with DAPI in blue. […] (d) In vivo efficacy of 5b compared with stilbene 4a. Nude mice were injected with UCI101 ovarian cancer cells and treated with 7 doses of 5b,c or stilbene 4a every 2-3 days. Tumor volume was calculated and plotted against days.
We next tested whether 5b could be converted into stilbene 4a in circulation. […] Blood was collected at 20, 60 and 240 min after injection for spot check of stilbene 4a level in serum. […] The in vivo efficacy of 5b and 5c was compared to stilbene 4a in a pilot study using 5 mice in each group.

[6] = preliminary toxicity and serum conversion of 5b; format: in vivo, mice
Excerpt: We next tested whether 5b could be converted into stilbene 4a in circulation. […] The in vivo efficacy of 5b and 5c was compared to stilbene 4a in a pilot study using 5 mice in each group.

UCI101 cells [7] = assay: phospho-histone 3B mitotic marker staining; format: cell-based
Description: as §1
The in vitro efficacy of these three compounds was tested in UCI101 cells in 96-well plate format and stained with Alamar blue™, The growth suppression was calculated as was done similarly to other test compounds. […] A dose response was then performed with various concentrations of 5b in vitro. […]

[8] = test system: SNU423 hepatocellular carcinoma cells; assay: Alamar Blue cell growth inhibition, SNU423; format: cell-based
In short: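 Cells at 50% confluence were treated for 48 h in triplicate with 0-10 μM compound or 0.1% DMSO vehicle. Alamar Blue was added at 1/10 volume for 2 h, and absorbance at 570 and 600 nm gave % growth via the manufacturer's extinction-coefficient formula relative to vehicle controls.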

[9] = test system: MDA-MB231 breast cancer cells; assay: Alamar Blue cell growth inhibition, MDA-MB231; format: cell-based; conditions: Homo sapiens, MDA-MB-231; MDA-MB231
Description: Cell growth was measured by Alamar Blue™ staining and the percentage of cell growth inhibition was calculated and compared with control cells that were treated with 0.1% DMSO, the vehicles for the stilbene compounds.
(§2) Various cancer cell lines were grown in 96-well plates for drug sensitivity assays. Once cells achieved 50% confluence, the incubation media was changed to the same cell growth media with different concentrations of the tested compounds or vehicle alone. Cells were then incubated for 48 hours before the cell growth inhibition study. To determine the degree of cell growth inhibition, 1/10 volume of Alamar Blue™ solution was added to each well and optical density (OD) at 570 and 600 nm was determined. The percentage of growth inhibition was calculated according to the manufacturer's formula as follows: The percentage of growth is [(117216×A570)−(80586×A600)]/[(117216×A^o570)−(80586×A^o600)]×100. In this formula, A570 is the absorbance of the treated samples at 570 nm; A600 is the absorbance of the treated samples at 600 nm; A^o570 is the absorbance of the […] samples at 570 nm; and A^o600 is the absorbance of the untreated samples at 600 nm. The two constants, 117216 and 80586, are the extinction coefficients of Alamar Blue™ at 570 and 600 nm respectively. Each concentration was repeated in triplicate to minimize the error.
(§3) We first tested the cytotoxic effect of various stilbene derivatives for their in vitro efficacy of suppressing tumor cell proliferation. Cells were first plated in 96-well plates at 50% confluence and treated with 0, 0.01, 0.03, 0.1, 0.3, 1.0, 3.0, 10 μM concentrations of stilbene derivatives for 48 hours in triplicate. Alamar Blue™ reagent was added into each well at 1/10 volume and incubated for 2 hours before quantification of the absorbance at 570 and 600 nm.

[10] = test system: MiaPaCa2 pancreatic cancer cells; assay: Alamar Blue cell growth inhibition, MiaPaCa2; format: cell-based; conditions: Homo sapiens, MIA PaCa-2; MiaPaCa2
Description: as §2, §3

[11] = test system: SKOV3 ovarian cancer cells; assay: Alamar Blue cell growth inhibition, SKOV3; format: cell-based
In short: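 SKOV3 cells at 50% confluence were treated 48 h with compounds, against 0.1% DMSO vehicle controls. Growth was read by Alamar Blue absorbance at 570 and 600 nm, with % growth inhibition from the manufacturer's extinction-coefficient formula. Each concentration was run in triplicate.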

[12] = test system: UCI101 ovarian cancer cells; assay: Western blot of signal transduction events, UCI101; format: cell-based
In short: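 UCI101 cells exposed to 0.1 μM compound for 0, 4, 8, 16 and 36 h, then harvested and analysed by Western blot. Probes covered G2-M regulators Cdc2, Cdc25c and BubR1, plus Akt phosphorylation.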

animal toxicity of 13a = conditions: 50 mg/kg

COc1cc(/C=C\c2ccc(OC)c(NC(=O)OCCN3CCOCC3)c2)cc(OC)c1 [5b, (Z)-{5-[2-(3,5-Dimethoxy-phenyl)-vinyl]-2-methoxy-phenyl}-carbamic acid 2-morpholin-4-yl-ethyl ester, oxalate salt]
water solubility (in words) [1]: high solubility
solubility ([1]; HCl salt, read-out: water solubility, x HCl): 759000 µg/mL
solubility ([1]; free base, read-out: water solubility, Free base): < 1000 µg/mL
solubility ([1]; oxalate salt, read-out: water solubility, x (COOH)2): 5900 µg/mL
fold less potent than stilbene 4a ([2]; UCI101, from IC50): about 100
IC50 ([2]; UCI101, estimated): ~3000 nM
cell death / cell cycle arrest at 1 μM (UCI101 cells [3]; 1 μM): not effective in inducing cell death or cell cycle arrest
cell death / cell cycle arrest at 3 μM (UCI101 cells [3]; 3 μM): showed a significant activity
cell death / cell cycle arrest at 10 μM (UCI101 cells [3]; 10 μM): nearly all cells have committed to cell death
fold less potent than stilbene 4a in vitro (UCI101 cells [3]; 10 μM 5b equivalent to 100 nM stilbene 4a): 100
cell cycle effect (UCI101 cells [3]; 4a at 30, 100 nM, 5b at 1, 3, 10 μM): induced similar cell cycle arrest as stilbene 4a
concentration inducing a subG0/1 (dead) population (UCI101 cells [3]; 24 hours): 3 µM
microtubule pattern (MDA-MB231 cells): completely disrupted microtubule formation
microtubule pattern (UCI101 cells [4]): partial disruption of microtubules
tumor growth versus control mice ([5]; 7 doses every 2-3 days): only compound that achieved statistical significance compared with control mice
tumor growth suppression ([5]; 7 doses every 2-3 days, 5 mice in each group): about 40%
mouse weight ([5]; mouse, in vivo): did not show any significant change
tolerability ([6]; 100 mg/kg by intraperitoneal injection): tolerated well without complication
persistence in circulation ([6]; 100 mg/kg ip): stay in circulation longer than stilbene 4a
phospho-histone 3B positive cells (UCI101 cells [7]): dramatic increase in positive cells

COc1cc(/C=C\c2ccc3c(ccn3C)c2)cc(OC)c1 [13a, (Z)-5-[2-(3,5-Dimethoxy-phenyl)-vinyl]-1-methyl-1H-indole]
water solubility (in words) [1]: poor water solubility
IC50 ([8]; Homo sapiens, SNU-423, 48 h, read-out: IC50 (50% growth inhibition), SNU423, 48 hours): 10 nM
effective concentration, blocking cell proliferation ([8]; SNU423, 48 hours): 0.03 µM
IC50 [9]: 10 nM
IC50 [10]: 10 nM
relative potency / activity ([2]; UCI101, 48 hours): about equal in their potency
IC50 ([11]; Homo sapiens, SK-OV-3, SKOV, read-out: IC50): 50 to 100 nM
effective / active concentration ([11]; SKOV3, 48 hours): 0.1 µM
phosphorylation of Stat3 ([12]; 0.1 μM): more pronounced
phosphorylation of Chk1 ([12]; 36 hours): do not cause more phosphorylation of Chk1
neurotoxicity (animal toxicity of 13a): transient neurotoxicity was observed
